Reference: patent publication US20070128285A1, “Pharmaceutical composition for oral administration” (priority 2005, published 2007)

Assay: Stability of setron drug aqueous solutions (0.1 w/w %) at pH 8 to 3, stored at 40° C. for three months
Format: physicochemical
Conditions: 0.1 w/w % aqueous solution
Procedure: The present inventors have investigated the stability of each setron drug (azasetron, granisetron, tropisetron, ramosetron, or ondansetron) in the aqueous solution of pH 8 to3. That is, an aqueous solution of each setron drug (0.1 w/w %) was adjusted to various pH values (pH 8 to 3) with hydrochloric acid or sodium hydroxide. After storing at 40° C. for three months, the external appearance and taste of the solution were observed. As a result, for each of the setron drugs, the aqueous solution of pH 8 is colored faint yellow, but the aqueous solution of pH 3 to 7 is colorless.

[1] = pH 3 to 7, stored at 40° C. for three months
[2] = pH 8, stored at 40° C. for three months

| external appearance (color) of the aqueous solution [1] | external appearance (color) of the aqueous solution [2] | Structure (SMILES) |
| --- | --- | --- |
| colorless | faint yellow | CN1C(=O)COc2c(C(=O)NC3CN4CCC3CC4)cc(Cl)cc21 (stereo not shown) [azasetron] |
| colorless | faint yellow | CN1C2CCCC1CC(NC(=O)c1nn(C)c3ccccc13)C2 (stereo not shown) [granisetron] |
| colorless | faint yellow | Cc1nccn1CC1CCc2c(c3ccccc3n2C)C1=O (stereo not shown) [ondansetron] |
| colorless | faint yellow | Cn1cc(C(=O)[C@@H]2CCc3nc[nH]c3C2)c2ccccc21 [ramosetron] |
| colorless | faint yellow | CN1[C@@H]2CC[C@H]1C[C@@H](OC(=O)c1c[nH]c3ccccc13)C2 [tropisetron] |
